Read-outs that look alike come from different tables or passages of the source.
What was measured:
[1] = in vivo
Protocol: (§2) From the orthotopic HCC and liver damage mouse models described above, blood samples were collected at 1, 4, 7 and 24 hours after once-daily oral administration of 5, 10 and 20 mg/kg regorafenib, respectively, for 5 days. Anti-PD1 antibody was given on days 1 and 4 with dose of 10 mg/kg by intraperitoneal injection. Blood samples were drawn from four to five animals per sampling time point. Regorafenib and its active metabolites M-2, M-4 and M-5 were analyzed in plasma samples using a validated bioanalytical liquid chromatography-tandem mass spectrometry.[25 33] Pharmacokinetic (PK) parameters were derived from the area under the plasma concentration versus time curve (AUC) using a non-compartmental analysis.
(§3) In addition, we evaluated PK parameters in HCC-bearing mice after regorafenib administration alone at doses of 5, 10 and 20 mg/kg or in combination with anti-PD1 therapy at the 10 mg/kg regorafenib dose for 5 days to achieve a steady state.

CXCL10 = test: CXCL10/CXCR3 expression in RIL-175 tumor tissue (RNA-seq, ELISA, RNA-Scope ISH, western blot); type: in vivo, mouse; settings: regorafenib alone at 10 mg/kg and 20 mg/kg; 6 hours after treatment
Protocol: The RNA-Scope assay was performed according to manufacturer’s instructions.[32] Briefly, formaldehyde-fixed and paraffin-embedded human and mouse HCC tissue blocks were cut in 5 µm sections, pretreated for 30 min, following digestion and hybridization at 40°C in a HybEZ oven with both dual labeling probes antimurine CXCR3 probe (Mm-CXCR3; 402511-C2) and CXCL10 (Mm-CXCL10; 408921) or human CXCL10 (Hs-CXCL10; 311851), all from Advanced Cell Diagnostics. Counterstaining was performed using hematoxylin for 10 s.
(§1) (A) Changes induced by combination of regorafenib (10 mg/kg) with anti-PD1 antibody in immune-related pathways from the gene set enrichment analysis (GSEA) using curated gene sets in RIL-175 HCC model (see also online supplemental dataset S1 and figure S2E). (B, C) Changes induced by combination of regorafenib (10 mg/kg) with anti-PD1 antibody in STAT3 and STAT1 activity (B), showing an increased ratio of phosphorylated (p)-STAT1/p-STAT3 (normalized to total STAT1 and STAT3, respectively) by western blot analysis of whole RIL-175 HCC tissue (C) (n=4 mice). […] (J, K) Combination therapy increases CXCL10 protein expression in whole RIL-175 tumor tissue 6 hours and 12 hours after in vivo when regorafenib treatment was used at doses of 10 mg/kg (R10) and 20 mg/kg (R20) (n=3) by western blot analysis (J); quantitative data of CXCL10/β-actin ratios are shown in (K). […]

HCA1 cells = test: CXCL10 secretion by HCA1 cells in vitro; type: cell-based, mouse; settings: 36hr; compared with increase in RIL-175 cells
STAT3 = test: STAT1/STAT3 phosphorylation in RIL-175 HCC tissue; type: in vivo, mouse; settings: samples of the PK study
Protocol: as §1, with “mice). (D) Treatment with regorafenib increases CXCL10 expression by RIL-175 HCC cells in vitro after 36 hours, in a dose-dependent manner (n=6). Culture medium alone was used as a negative control (NC).” for “mice).”
Flow cytometry analysis. […] After preparation, cells were suspended in 2ml of PBS with 2% BSA, then counted using a cell counting plate (Kova slide) (if the final concentration of cell exceeded 10^7 cells/ml, a dilution factor was applied). […]

in vivo = settings: C57Bl/6, mouse, po; for AUC: Plasma AUC; for Cmax: Plasma Cmax
Protocol: as §2, §3

SMILES: CNC(=O)c1cc(Oc2ccc(NC(=O)Nc3ccc(Cl)c(C(F)(F)F)c3)c(F)c2)ccn1 [regorafenib]
- Tumor AUC ([1]; C57Bl/6, mouse, po, 5 mg/kg): 2320 ng·h/mL
- Tumor AUCnorm ([1]; C57Bl/6, mouse, po, 5 mg/kg): 0.465 kg·h/L
- Tumor Cmax ([1]; C57Bl/6, mouse, po, 5 mg/kg): 191 µg/kg
- Plasma AUC ([1]; C57Bl/6, mouse, po, 10 mg/kg): 2140 ng·h/mL
- Plasma Cmax ([1]; C57Bl/6, mouse, po, 10 mg/kg): 190 ng/mL
- Tumor AUC ([1]; C57Bl/6, mouse, po, 10 mg/kg): 4670 ng·h/mL
- Tumor AUCnorm ([1]; C57Bl/6, mouse, po, 10 mg/kg): 0.467 kg·h/L
- Tumor Cmax ([1]; C57Bl/6, mouse, po, 10 mg/kg): 291 µg/kg
- Tumor AUC ([1]; C57Bl/6, mouse, po, 20 mg/kg): 7930 ng·h/mL
- Tumor AUCnorm ([1]; C57Bl/6, mouse, po, 20 mg/kg): 0.396 kg·h/L
- Tumor Cmax ([1]; C57Bl/6, mouse, po, 20 mg/kg): 575 µg/kg
- Cmax in the tumor tissue, combination group versus R10 group ([1]; mouse): higher
- Plasma AUC0–24 and Cmax versus dose ([1]; mouse): dose-proportional
- Tumor AUC0–24 and Cmax versus dose ([1]; mouse): dose-proportional increase
- Plasma AUCnorm ([1]; mouse, po, 5 mg/kg): 0.290 kg·h/L
- Plasma AUCnorm ([1]; mouse, po, 10 mg/kg): 0.241 kg·h/L
- Plasma AUCnorm ([1]; mouse, po, 20 mg/kg): 0.287 kg·h/L
- CXCL10 protein in whole tumor tissue lysate (western blot) (CXCL10): increased protein levels
- Level of CXCL10 secreted by HCA1 cells (HCA1 cells): to a lesser extent
- Phosphorylated (p)STAT3 levels in HCC tissues (STAT3): inhibited
- AUC (in vivo; 5 mg/kg): 1450 ng·h/mL
- Cmax (in vivo; 5 mg/kg): 108 ng/mL
- AUC (in vivo; 10 mg/kg): 2160 ng·h/mL
- Cmax (in vivo; 10 mg/kg): 201 ng/mL
- Tmax (in vivo; 10 mg/kg, Plasma Tmax): 1 h
- Tmax (in vivo; 10 mg/kg, Tumor Tmax): 7 h
- AUC (in vivo; 20 mg/kg): 5750 ng·h/mL
- Cmax (in vivo; 20 mg/kg): 485 ng/mL

From PMC7689089, “Regorafenib combined with PD1 blockade increases CD8 T-cell infiltration by inducing CXCL10 expression in hepatocellular carcinoma” (Journal for Immunotherapy of Cancer, 2020)
